Key:
[1] = system: bone; conditions: cited from earlier work
[2] = system: calvarial osteoblasts; conditions: osteoblasts from treated mice; cited from earlier work
[3] = system: MDA-MB-231 breast cancer cells; assay: EVOCA (ex vivo organ co-culture assay of tumor + bone), tumor burden by SSQ-PCR for hRPL32; format: cell-based, human; conditions: 7d EVOCA, wt bones
Description: 7D EVOCA. Tumor burden by SSQ-PCR for hRPL32.
(§1) EVOCA (ex vivo organ co-culture assay) of breast cancer cells and bone: Segments of neonatal mouse bone are prepared by a modification of Mohammad et al [2008]. Calvariae from euthanized 14 day old Swiss Webster pups are cut into 5 mm disks with a biopsy punch, yielding two disks (hemi-calvariae) per pup, and placed into wells of uncoated 24-well plates. Calvariae from βArr2−/− and +/+ littermates, as available, can be shipped in sterile tubes in standard tissue culture medium by overnight FedEx from the Luttrell laboratory at Medical University of South Carolina. Bones shipped overnight in media survive the shipping and give reproducible results, compared to freshly harvested bones. Cancer cells (2-10×10^3, depending on cell types and ability to adhere to bones; e.g., 2,000 for MDA-MB-231) are added in 0.5 ml BGJb medium (Life Technologies) +10% fetal calf serum and incubated at 37° C. in 5% CO2. […] At the end of the incubation, bone are either fixed and decalcified for routine histology or homogenized for RNA isolation with a bead beater, using QIAGEN RNeasy mini kits, converted to cDNA (Biorad iScript,), and analyzed by quantitative PCR using Biorad SYBR green PCR kits and a Biorad iCycler single-color real-time detection system. […] EVOCA cultures can be analyzed by histology and IHC staining. […]

[4] = system: MDA-MB-231 BC cells; assay: EVOCA with MDA-MB-231 cells, tumor gene mRNA by PCR; format: cell-based, human; conditions: 7d EVOCA
Description: FIGS. 7A, 7B, and 7C show the effects of bPTH7-34DD on MDA-MB-231; 7d EVOCA, PCR as done in FIG. 5.
as §1, with “bones.” for “bones. Cancer cells (2-10×10^3, depending on cell types and ability to adhere to bones; e.g., 2,000 for MDA-MB-231) are added in 0.5 ml BGJb medium (Life Technologies) +10% fetal calf serum and incubated at 37° C. in 5% CO2.”

[5] = 4 or 8 weeks, once-daily injection
[6] = continuous infusion, 40 μg/kg/d

| Structure (SMILES) | cortical bone parameters (periosteal circumference and cortical thickness) [1, 5] | mineral apposition (MAR, BFR) [1, 5] | tibial trabecular bone parameters (BV/TV, trabecular number) [1, 5] | elevation of urinary calcium excretion [1, 6] | mRNA for Dars, aspartyl-tRNA synthetase, in bone [1, 6] | mRNA of Gab 1 in bone [1, 6] | serum osteocalcin ([1]; once-daily injection) | osteoblast number and osteoid surface ([1]; quantitative histomorphometry) | osteoclast numbers ([1]; quantitative histomorphometry) | anabolic markers of Obl activity (RUNX2, Alk Phos, Col1A1) [2] | MDA-MB-231 tumor growth in bone [3] | tumor hPTHrP mRNA [4] |
| --- | --- | --- | --- | --- | --- | --- | --- | --- | --- | --- | --- | --- |
| CC[C@H](C)[C@H](NC(=O)[C@H](CCC(=O)O)NC(=O)[C@H](CO)NC(=O)[C@@H](NC(=O)[C@@H](N)CO)C(C)C)C(=O)N[C@@H](CCC(N)=O)C(=O)N[C@@H](CC(C)C)C(=O)N[C@@H](CCSC)C(=O)N[C@@H](Cc1cnc[nH]1)C(=O)N[C@@H](CC(N)=O)C(=O)N[C@@H](CC(C)C)C(=O)NCC(=O)N[C@@H](CCCCN)C(=O)N[C@@H](Cc1cnc[nH]1)C(=O)N[C@@H](CC(C)C)C(=O)N[C@@H](CC(N)=O)C(=O)N[C@@H](CO)C(=O)N[C@@H](CCSC)C(=O)N[C@@H](CCC(=O)O)C(=O)N[C@@H](CCCN=C(N)N)C(=O)N[C@H](C(=O)N[C@@H](CCC(=O)O)C(=O)N[C@@H](Cc1c[nH]c2ccccc12)C(=O)N[C@@H](CC(C)C)C(=O)N[C@@H](CCCN=C(N)N)C(=O)N[C@@H](CCCCN)C(=O)N[C@@H](CCCCN)C(=O)N[C@@H](CC(C)C)C(=O)N[C@@H](CCC(N)=O)C(=O)N[C@@H](CC(=O)O)C(=O)N[C@H](C(=O)N[C@@H](Cc1cnc[nH]1)C(=O)N[C@@H](CC(N)=O)C(=O)N[C@@H](Cc1ccccc1)C(=O)O)C(C)C)C(C)C [hPTH1-34] | increased only by hPTH1-34 | equivalently increased | increased by both | 5 × | increased | doubled | equivalently raised | increased by both | increased only by hPTH1-34 | strongly increased | increased | – |
| Fc1ccc(Cl)cc1-c1nc(Nc2ccncc2)c2nccnc2n1 [SD208] | – | – | – | – | – | – | – | – | – | – | – | not seen |

From patent US11883468B2, “Compositions and methods to suppress tumor growth in bone, prevent cachectic muscle loss, and preserve skeletal integrity” (United States Government As Represented By The Department …, priority 2019, dated 2024)
